SMILES: Nc1ccc(N2CCOCC2=O)cc1
- solubility (mole fraction) (in 1,4-dioxane, 278.15 K): 0.00411
- solubility (mole fraction) (in 1,4-dioxane, 283.15 K): 0.00529
- solubility (mole fraction) (in 1,4-dioxane, 288.15 K): 0.00665
- solubility (mole fraction) (in 1,4-dioxane, 293.15 K): 0.0083
- solubility (mole fraction) (in 1,4-dioxane, 298.15 K): 0.0102
- solubility (mole fraction) (in 1,4-dioxane, 303.15 K): 0.0125
- solubility (mole fraction) (in 1,4-dioxane, 308.15 K): 0.0149
- solubility (mole fraction) (in 1,4-dioxane, 313.15 K): 0.0178
- solubility (mole fraction) (in 1,4-dioxane, 318.15 K): 0.0209
- solubility (mole fraction) (in 1,4-dioxane, 323.15 K): 0.0244
- solubility (mole fraction) (in 1,4-dioxane, 328.15 K): 0.0282
- solubility (mole fraction) (in 1,4-dioxane, 333.15 K): 0.032
- solubility (mole fraction) (in THF, 278.15 K): 0.00138
- solubility (mole fraction) (in THF, 283.15 K): 0.00182
- solubility (mole fraction) (in THF, 288.15 K): 0.00245
- solubility (mole fraction) (in THF, 293.15 K): 0.00323
- solubility (mole fraction) (in THF, 298.15 K): 0.00423
- solubility (mole fraction) (in THF, 303.15 K): 0.00542
- solubility (mole fraction) (in THF, 308.15 K): 0.00687
- solubility (mole fraction) (in THF, 313.15 K): 0.00865
- solubility (mole fraction) (in THF, 318.15 K): 0.0107
- solubility (mole fraction) (in THF, 323.15 K): 0.0132
- solubility (mole fraction) (in THF, 328.15 K): 0.0159
- solubility (mole fraction) (in THF, 333.15 K): 0.0191
- solubility (mole fraction) (in ethanol, 278.15 K): 0.00127
- solubility (mole fraction) (in ethanol, 283.15 K): 0.00162
- solubility (mole fraction) (in ethanol, 288.15 K): 0.00208
- solubility (mole fraction) (in ethanol, 293.15 K): 0.0026
- solubility (mole fraction) (in ethanol, 298.15 K): 0.00321
- solubility (mole fraction) (in ethanol, 303.15 K): 0.00393
- solubility (mole fraction) (in ethanol, 308.15 K): 0.00475
- solubility (mole fraction) (in ethanol, 313.15 K): 0.00567
- solubility (mole fraction) (in ethanol, 318.15 K): 0.00672
- solubility (mole fraction) (in ethanol, 323.15 K): 0.00792
- solubility (mole fraction) (in ethanol, 328.15 K): 0.00928
- solubility (mole fraction) (in ethanol, 333.15 K): 0.0107
- solubility (mole fraction) (in ethyl acetate, 278.15 K): 0.000559
- solubility (mole fraction) (in ethyl acetate, 283.15 K): 0.000794
- solubility (mole fraction) (in ethyl acetate, 288.15 K): 0.0011
- solubility (mole fraction) (in ethyl acetate, 293.15 K): 0.00149
- solubility (mole fraction) (in ethyl acetate, 298.15 K): 0.00196
- solubility (mole fraction) (in ethyl acetate, 303.15 K): 0.00257
- solubility (mole fraction) (in ethyl acetate, 308.15 K): 0.00326
- solubility (mole fraction) (in ethyl acetate, 313.15 K): 0.00412
- solubility (mole fraction) (in ethyl acetate, 318.15 K): 0.00509
- solubility (mole fraction) (in ethyl acetate, 323.15 K): 0.0062
- solubility (mole fraction) (in ethyl acetate, 328.15 K): 0.00743
- solubility (mole fraction) (in ethyl acetate, 333.15 K): 0.00873
- solubility (mole fraction) (in methanol, 278.15 K): 0.00172
- solubility (mole fraction) (in methanol, 283.15 K): 0.00221
- solubility (mole fraction) (in methanol, 288.15 K): 0.00285
- solubility (mole fraction) (in methanol, 293.15 K): 0.00367
- solubility (mole fraction) (in methanol, 298.15 K): 0.00463
- solubility (mole fraction) (in methanol, 303.15 K): 0.00589
- solubility (mole fraction) (in methanol, 308.15 K): 0.00751
- solubility (mole fraction) (in methanol, 313.15 K): 0.00955
- solubility (mole fraction) (in methanol, 318.15 K): 0.0121
- solubility (mole fraction) (in methanol, 323.15 K): 0.0153
- solubility (mole fraction) (in methanol, 328.15 K): 0.019
- solubility (mole fraction) (in methanol, 333.15 K): 0.0239
- solubility (mole fraction) (in n-propanol, 278.15 K): 0.000322
- solubility (mole fraction) (in n-propanol, 283.15 K): 0.000404
- solubility (mole fraction) (in n-propanol, 288.15 K): 0.000506
- solubility (mole fraction) (in n-propanol, 293.15 K): 0.000649
- solubility (mole fraction) (in n-propanol, 298.15 K): 0.000825
- solubility (mole fraction) (in n-propanol, 303.15 K): 0.00105
- solubility (mole fraction) (in n-propanol, 308.15 K): 0.00133
- solubility (mole fraction) (in n-propanol, 313.15 K): 0.0017
- solubility (mole fraction) (in n-propanol, 318.15 K): 0.00216
- solubility (mole fraction) (in n-propanol, 323.15 K): 0.00274
- solubility (mole fraction) (in n-propanol, 328.15 K): 0.00348
- solubility (mole fraction) (in n-propanol, 333.15 K): 0.00443
